Results reported in the kinase profiling compilation of Christmann-Franck et al. (2016).

Columns and labels:
Assay in all cases: radiometric filter-binding kinase assay, Kinase HotSpot
Conditions in all cases: compound 0.5 µM; ATP 10 µM
[1] = target: ACVR1B (human) (UniProt P36896)
[2] = target: AKT1 (human) (UniProt P31749)
[3] = target: AURKA (human) (UniProt O14965)
[4] = target: AXL (human) (UniProt P30530)
[5] = target: BTK (human) (UniProt Q06187)
[6] = target: CAMKK2 (human) (UniProt Q96RR4)
[7] = target: CDC42BPA (human) (UniProt Q5VT25)
[8] = target: CDK9 CCNT1 (human) (UniProt P50750+O60563)
Chain of CDK9 CCNT1 (human) (O60563 whole entry, looked up): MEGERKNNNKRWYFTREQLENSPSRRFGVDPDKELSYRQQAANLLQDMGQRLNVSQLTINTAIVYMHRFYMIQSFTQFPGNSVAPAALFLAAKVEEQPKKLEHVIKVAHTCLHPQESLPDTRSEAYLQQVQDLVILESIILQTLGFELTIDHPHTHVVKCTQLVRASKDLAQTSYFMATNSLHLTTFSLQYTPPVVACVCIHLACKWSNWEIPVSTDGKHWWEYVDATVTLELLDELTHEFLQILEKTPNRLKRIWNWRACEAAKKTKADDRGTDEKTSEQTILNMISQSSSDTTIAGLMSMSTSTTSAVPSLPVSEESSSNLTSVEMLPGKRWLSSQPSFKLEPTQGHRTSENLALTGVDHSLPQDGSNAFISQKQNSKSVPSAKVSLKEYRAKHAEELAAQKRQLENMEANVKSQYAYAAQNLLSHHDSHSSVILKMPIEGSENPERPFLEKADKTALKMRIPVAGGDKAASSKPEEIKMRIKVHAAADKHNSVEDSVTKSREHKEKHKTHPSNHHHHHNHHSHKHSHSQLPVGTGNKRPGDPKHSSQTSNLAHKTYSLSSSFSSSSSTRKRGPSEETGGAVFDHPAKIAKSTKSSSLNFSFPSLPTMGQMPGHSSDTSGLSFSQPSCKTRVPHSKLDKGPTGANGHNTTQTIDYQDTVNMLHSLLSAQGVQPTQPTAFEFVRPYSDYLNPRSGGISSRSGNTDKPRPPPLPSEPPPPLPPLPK
Chain of CDK9 CCNT1 (human) (P50750 whole entry, looked up): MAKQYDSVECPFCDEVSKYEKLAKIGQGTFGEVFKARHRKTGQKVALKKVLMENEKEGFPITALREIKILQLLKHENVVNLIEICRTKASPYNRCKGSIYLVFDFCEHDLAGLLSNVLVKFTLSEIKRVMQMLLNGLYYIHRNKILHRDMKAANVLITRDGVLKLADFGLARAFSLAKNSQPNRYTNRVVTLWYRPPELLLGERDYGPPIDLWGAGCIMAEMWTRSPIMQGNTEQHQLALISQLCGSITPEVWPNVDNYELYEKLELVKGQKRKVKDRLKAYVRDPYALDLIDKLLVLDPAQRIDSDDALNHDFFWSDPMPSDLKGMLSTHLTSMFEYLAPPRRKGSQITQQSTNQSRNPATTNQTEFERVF

[9] = target: CSNK1A1 (human) (UniProt P48729)
Chain of CSNK1A1 (human) (P48729 whole entry, looked up): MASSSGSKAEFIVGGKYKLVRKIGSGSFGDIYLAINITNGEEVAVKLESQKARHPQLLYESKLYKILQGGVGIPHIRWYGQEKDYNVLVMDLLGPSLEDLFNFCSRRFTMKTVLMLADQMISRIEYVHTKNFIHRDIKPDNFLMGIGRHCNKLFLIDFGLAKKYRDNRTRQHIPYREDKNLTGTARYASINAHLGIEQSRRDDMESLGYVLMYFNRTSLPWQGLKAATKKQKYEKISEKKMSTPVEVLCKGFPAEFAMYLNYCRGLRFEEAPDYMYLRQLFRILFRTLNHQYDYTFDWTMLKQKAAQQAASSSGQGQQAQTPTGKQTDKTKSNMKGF

[10] = target: CSNK1G3 (human) (UniProt Q9Y6M4)
[11] = target: CSNK2A1 (human) (UniProt P68400)
[12] = target: EPHA5 (human) (UniProt P54756)
[13] = target: EPHB2 (human) (UniProt P29323)
[14] = target: FGFR3 (human) (UniProt P22607)
[15] = target: GSK3A (human) (UniProt P49840)
[16] = target: JAK1 JH1 catalytic (human) (UniProt P23458)
[17] = target: MAP3K3 (human) (UniProt Q99759)
[18] = target: MAP4K2 (human) (UniProt Q12851)
[19] = target: MAPK12 (human) (UniProt P53778)
Chain of MAPK12 (human) (P53778 whole entry, looked up): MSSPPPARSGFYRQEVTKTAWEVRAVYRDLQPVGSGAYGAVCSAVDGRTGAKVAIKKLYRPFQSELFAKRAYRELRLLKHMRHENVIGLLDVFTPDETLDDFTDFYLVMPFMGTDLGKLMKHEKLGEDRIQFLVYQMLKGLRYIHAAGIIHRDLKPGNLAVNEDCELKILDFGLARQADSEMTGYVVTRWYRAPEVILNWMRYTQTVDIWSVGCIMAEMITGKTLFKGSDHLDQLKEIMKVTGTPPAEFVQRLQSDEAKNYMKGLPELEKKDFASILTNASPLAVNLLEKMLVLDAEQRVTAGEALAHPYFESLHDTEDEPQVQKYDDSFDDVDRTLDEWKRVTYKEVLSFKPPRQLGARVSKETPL

[20] = target: MAPK14 (human) (UniProt Q16539)
[21] = target: MARK3 (human) (UniProt P27448)
[22] = target: MARK4 (human) (UniProt Q96L34)
[23] = target: MYLK (human) (UniProt Q15746)
[24] = target: NEK4 (human) (UniProt P51957)
[25] = target: PAK6 (human) (UniProt Q9NQU5)
[26] = target: PLK2 (human) (UniProt Q9NYY3)
[27] = target: PRKACA (human) (UniProt P17612)
[28] = target: PRKD2 (human) (UniProt Q9BZL6)
Chain of PRKD2 (human) (Q9BZL6 whole entry, looked up): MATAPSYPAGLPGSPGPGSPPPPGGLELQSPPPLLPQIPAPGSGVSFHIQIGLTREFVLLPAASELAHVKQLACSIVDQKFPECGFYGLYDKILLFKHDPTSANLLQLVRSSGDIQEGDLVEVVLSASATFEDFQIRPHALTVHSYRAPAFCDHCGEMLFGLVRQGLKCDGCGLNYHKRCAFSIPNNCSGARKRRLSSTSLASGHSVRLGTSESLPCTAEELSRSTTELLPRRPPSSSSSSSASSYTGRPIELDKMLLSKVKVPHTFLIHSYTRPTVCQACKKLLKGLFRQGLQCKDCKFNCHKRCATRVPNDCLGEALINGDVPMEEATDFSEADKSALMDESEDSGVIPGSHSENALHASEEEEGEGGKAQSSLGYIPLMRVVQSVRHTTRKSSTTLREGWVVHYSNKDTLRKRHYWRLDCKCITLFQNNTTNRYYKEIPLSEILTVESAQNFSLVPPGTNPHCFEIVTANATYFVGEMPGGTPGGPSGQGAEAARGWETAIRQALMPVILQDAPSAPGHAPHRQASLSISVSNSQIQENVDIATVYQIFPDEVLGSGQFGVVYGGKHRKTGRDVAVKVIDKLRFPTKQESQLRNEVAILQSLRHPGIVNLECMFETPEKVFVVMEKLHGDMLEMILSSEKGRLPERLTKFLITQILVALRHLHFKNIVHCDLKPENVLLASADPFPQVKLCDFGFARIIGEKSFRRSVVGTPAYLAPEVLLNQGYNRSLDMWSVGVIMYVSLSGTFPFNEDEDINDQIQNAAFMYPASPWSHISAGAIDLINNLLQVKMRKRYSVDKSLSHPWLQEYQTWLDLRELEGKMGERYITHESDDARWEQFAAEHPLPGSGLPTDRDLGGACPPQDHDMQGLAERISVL

[29] = target: PTK2B (human) (UniProt Q14289)
[30] = target: RAF1 (human) (UniProt P04049)
[31] = target: RIPK2 (human) (UniProt O43353)
Chain of RIPK2 (human) (O43353 whole entry, looked up): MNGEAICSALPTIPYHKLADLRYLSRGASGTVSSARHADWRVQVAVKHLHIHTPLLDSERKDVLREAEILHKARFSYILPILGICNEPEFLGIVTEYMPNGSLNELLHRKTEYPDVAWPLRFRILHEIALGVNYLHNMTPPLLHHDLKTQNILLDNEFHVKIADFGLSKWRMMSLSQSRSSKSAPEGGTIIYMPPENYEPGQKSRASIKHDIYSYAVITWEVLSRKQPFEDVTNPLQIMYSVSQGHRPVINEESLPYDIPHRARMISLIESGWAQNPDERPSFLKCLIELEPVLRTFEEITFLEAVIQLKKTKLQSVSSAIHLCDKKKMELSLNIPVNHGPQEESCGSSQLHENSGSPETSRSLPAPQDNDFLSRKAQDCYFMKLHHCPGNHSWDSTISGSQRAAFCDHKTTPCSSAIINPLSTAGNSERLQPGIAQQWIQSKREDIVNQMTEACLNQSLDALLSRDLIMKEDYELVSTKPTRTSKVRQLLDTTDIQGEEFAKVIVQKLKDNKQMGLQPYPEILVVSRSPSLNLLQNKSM

[32] = target: ROCK2 (human) (UniProt O75116)
[33] = target: SLK (human) (UniProt Q9H2G2)
[34] = target: SRC (human) (UniProt P12931)
Chain of SRC (human) (P12931 whole entry, looked up): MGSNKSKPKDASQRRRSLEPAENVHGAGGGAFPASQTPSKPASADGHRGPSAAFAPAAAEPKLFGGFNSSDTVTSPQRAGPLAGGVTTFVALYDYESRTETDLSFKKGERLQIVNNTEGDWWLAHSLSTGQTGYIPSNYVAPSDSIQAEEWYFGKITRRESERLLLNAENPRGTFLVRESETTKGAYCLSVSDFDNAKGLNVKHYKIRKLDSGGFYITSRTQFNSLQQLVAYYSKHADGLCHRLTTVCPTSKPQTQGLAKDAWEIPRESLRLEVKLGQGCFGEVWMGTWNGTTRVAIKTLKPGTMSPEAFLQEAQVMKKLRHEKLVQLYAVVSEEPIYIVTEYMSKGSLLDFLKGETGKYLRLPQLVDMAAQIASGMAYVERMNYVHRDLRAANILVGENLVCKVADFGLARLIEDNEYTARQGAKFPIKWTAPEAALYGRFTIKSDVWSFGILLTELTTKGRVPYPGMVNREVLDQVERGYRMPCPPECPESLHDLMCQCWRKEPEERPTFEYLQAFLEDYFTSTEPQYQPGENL

[35] = target: STK17A (human) (UniProt Q9UEE5)
[36] = target: STK24 (human) (UniProt Q9Y6E0)
Chain of STK24 (human) (Q9Y6E0 whole entry, looked up): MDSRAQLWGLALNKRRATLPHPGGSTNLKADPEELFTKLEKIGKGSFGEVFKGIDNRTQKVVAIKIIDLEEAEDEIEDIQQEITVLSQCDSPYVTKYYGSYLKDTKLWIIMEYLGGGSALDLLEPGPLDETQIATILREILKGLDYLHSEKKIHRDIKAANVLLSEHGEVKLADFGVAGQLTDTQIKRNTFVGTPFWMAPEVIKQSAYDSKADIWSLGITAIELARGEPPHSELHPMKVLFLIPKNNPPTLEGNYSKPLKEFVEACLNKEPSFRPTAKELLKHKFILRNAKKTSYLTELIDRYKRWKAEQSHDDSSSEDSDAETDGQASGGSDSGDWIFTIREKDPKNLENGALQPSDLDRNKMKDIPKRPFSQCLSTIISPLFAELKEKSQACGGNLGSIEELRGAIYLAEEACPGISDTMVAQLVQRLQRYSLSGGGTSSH

[37] = target: SYK (human) (UniProt P43405)
[38] = target: TEC (human) (UniProt P42680)
[39] = target: TGFBR1 (human) (UniProt P36897)
[40] = target: TSSK2 (human) (UniProt Q96PF2)
[41] = target: TYK2 JH1 catalytic (human) (UniProt P29597)
[42] = target: ZAP70 (human) (UniProt P43403)

Chain of ACVR1B (human) (P36896 whole entry, looked up): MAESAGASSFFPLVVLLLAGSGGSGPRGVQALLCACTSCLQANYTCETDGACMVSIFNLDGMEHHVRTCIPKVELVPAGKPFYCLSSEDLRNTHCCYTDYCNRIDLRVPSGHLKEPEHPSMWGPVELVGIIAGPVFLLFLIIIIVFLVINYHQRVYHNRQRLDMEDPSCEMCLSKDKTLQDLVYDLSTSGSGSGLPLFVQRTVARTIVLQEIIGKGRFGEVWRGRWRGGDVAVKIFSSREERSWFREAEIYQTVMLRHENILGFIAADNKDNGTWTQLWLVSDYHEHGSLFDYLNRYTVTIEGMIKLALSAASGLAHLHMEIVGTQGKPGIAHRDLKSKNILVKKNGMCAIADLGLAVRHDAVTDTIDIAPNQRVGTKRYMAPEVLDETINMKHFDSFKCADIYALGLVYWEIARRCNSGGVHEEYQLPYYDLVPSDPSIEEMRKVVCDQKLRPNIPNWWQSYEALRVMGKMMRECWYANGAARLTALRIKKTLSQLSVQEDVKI

CN(C)c1ccc(/C=C2\C(=O)Nc3ccccc32)cc1
residual activity [1]: 93.4%
residual activity [2]: 101%
residual activity [3]: 104%
residual activity [4]: 93.8%
residual activity [5]: 104%
residual activity [6]: 100%
residual activity [7]: 101%
residual activity [8]: 94.5%
residual activity [9]: 105%
residual activity [10]: 101%
residual activity [11]: 89.7%
residual activity [12]: 109%
residual activity [13]: 86.5%
residual activity [14]: 96.3%
residual activity [15]: 104%
residual activity [16]: 105%
residual activity [17]: 104%
residual activity [18]: 109%
residual activity [19]: 102%
residual activity [20]: 92.4%
residual activity [21]: 101%
residual activity [22]: 97%
residual activity [23]: 90.5%
residual activity [24]: 102%
residual activity [25]: 96.9%
residual activity [26]: 111%
residual activity [27]: 104%
residual activity [28]: 95.2%
residual activity [29]: 94.5%
residual activity [30]: 101%
residual activity [31]: 87.8%
residual activity [32]: 95.2%
residual activity [33]: 103%
residual activity [34]: 102%
residual activity [35]: 93.8%
residual activity [36]: 96.7%
residual activity [37]: 90.4%
residual activity [38]: 103%
residual activity [39]: 96.7%
residual activity [40]: 101%
residual activity [41]: 103%
residual activity [42]: 89.9%

CCCCc1c(-c2ccc(OC)cc2)[nH]c2nccnc12
residual activity [1]: 112%
residual activity [2]: 113%
residual activity [3]: 25.5%
residual activity [4]: 110%
residual activity [5]: 64.7%
residual activity [6]: 79.1%
residual activity [7]: 99.7%
residual activity [8]: 55.2%
residual activity [9]: 92.9%
residual activity [10]: 89.2%
residual activity [11]: 97.8%
residual activity [12]: 91.6%
residual activity [13]: 88.8%
residual activity [14]: 86.8%
residual activity [15]: 55.8%
residual activity [16]: 67.1%
residual activity [17]: 99.8%
residual activity [18]: 65.1%
residual activity [19]: 102%
residual activity [20]: 112%
residual activity [21]: 91.2%
residual activity [22]: 88.3%
residual activity [23]: 96.8%
residual activity [24]: 81.3%
residual activity [25]: 96.8%
residual activity [26]: 94.9%
residual activity [27]: 96.6%
residual activity [28]: 101%
residual activity [29]: 100%
residual activity [30]: 99.9%
residual activity [31]: 71%
residual activity [32]: 97.2%
residual activity [33]: 76.2%
residual activity [34]: 58.8%
residual activity [35]: 95.5%
residual activity [36]: 87.3%
residual activity [37]: 47.5%
residual activity [38]: 134%
residual activity [39]: 95%
residual activity [40]: 93.7%
residual activity [41]: 38.8%
residual activity [42]: 74.2%
